In EPA's ToxValDB 9.5 (doi:10.2903/j.efsa.2007.106r):
In brackets after ≈: the same amount, converted by molar mass. Several values for one entry are separate records, joined by “and”; a condition that tells them apart may be missing. Equal values may be shown once.

Key:
Anas platyrhynchos = conditions: for NOEL / NOEC: reproductive
Rattus norvegicus = conditions: for LD50: acute, oral, mortality
Colinus virginianus = conditions: for NOEL / NOEC: reproduction developmental
Bibionidae = conditions: chronic/long-term
Canidae = conditions: chronic; duration: 1 years; Dog Other; clinical chemistry
Folsomia candida = conditions: chronic/long-term
Mus musculus = conditions: acute, oral, mortality
Daphnia magna = conditions: chronic/long-term
Apis mellifera = conditions: acute, mortality
Aphidius rhopalosiphi = test: LR50; higher = less toxic; conditions: chronic/long-term; mortality
Typhlodromus pyri = test: LR50; higher = less toxic; conditions: not reported; mortality
[1] = acute, duration: 5 days, oral, diet, mortality

**Q.** How did the NOEL (Anas platyrhynchos; duration: 20 weeks, oral, feed) turn out when `OC(Cc1ccccc1Cl)(Cn1cncn1)C1(Cl)CC1` (stereo not drawn) was run?
**A.** 63 mg/kg-day

**Q.** What about the NOAEL (Rattus norvegicus; chronic, organ weight) of the same compound?
**A.** 1.1 mg/kg-day

**Q.** What about the NOAEL (Rattus norvegicus; developmental, development) of the same compound?
**A.** 1 mg/kg-day

**Q.** What about the LD50 (Colinus virginianus; acute, oral, diet, mortality) of the same compound?
**A.** > 297 mg/kg-day

**Q.** What about the LD50 (Colinus virginianus; acute, oral, mortality) of the same compound?
**A.** > 2000 mg/kg

**Q.** What about the NOEL (Colinus virginianus; duration: 20 weeks, oral, diet) of the same compound?
**A.** 14.8 mg/kg-day

**Q.** Which LC50 (Oncorhynchus mykiss; acute, mortality) does the source give for `OC(Cc1ccccc1Cl)(Cn1[nH]cnc1=S)C1(Cl)CC1` (stereo not drawn) [Prothioconazole] here?
**A.** 1.83 µg/mL (≈ 5.32 µM)

**Q.** What about the NOEC (Oncorhynchus mykiss; chronic/long-term, other) of the same compound?
**A.** 0.308 mg/L

**Q.** And the NOEC (Bibionidae)?
**A.** 9.14 mg/L

**Q.** What about the NOAEL (Canidae) of the same compound?
**A.** 5 mg/kg-day

**Q.** What about the NOEC (Anas platyrhynchos; duration: 20 weeks) of the same compound?
**A.** ≥ 500 mg/kg

**Q.** And the NOEL (Anas platyrhynchos; duration: 20 weeks)?
**A.** 63 mg/kg-day

**Q.** What about the NOEC (Anas platyrhynchos; duration: 21 weeks) of the same compound?
**A.** 700 mg/kg

**Q.** What about the NOEL (Anas platyrhynchos; duration: 21 weeks) of the same compound?
**A.** 78 mg/kg-day

**Q.** And the LD50 (Anas platyrhynchos; short-term, duration: 5 days, oral, feed, mortality)?
**A.** > 2460 mg/kg-day

**Q.** What about the LC50 (Anas platyrhynchos; short-term, duration: 5 days, oral, feed, reproduction) of the same compound?
**A.** > 5000 mg/kg

**Q.** And the NOEC (Folsomia candida)?
**A.** 64 mg/kg

**Q.** And the LD50 (Rattus norvegicus; F)?
**A.** 2510 mg/kg-day

**Q.** What about the LD50 (Rattus norvegicus; M/F) of the same compound?
**A.** > 6200 mg/kg-day

**Q.** And the LD50 (Rattus norvegicus; M)?
**A.** 2810 mg/kg-day

**Q.** And the NOAEL (Rattus norvegicus; chronic, duration: 2 years, organ weight)?
**A.** 5 mg/kg-day

**Q.** What about the NOAEL (Rattus norvegicus; developmental, development) of the same compound?
**A.** 20 mg/kg-day

**Q.** And the LC50 (Tagia sp.; acute, mortality)?
**A.** > 1000 mg/kg

**Q.** And the NOEC (Tagia sp.; chronic/long-term)?
**A.** 1.33 mg/kg

**Q.** What about the LC50 (Colinus virginianus; [1]) of the same compound?
**A.** > 5000 mg/kg and 4090 mg/kg

**Q.** What about the LD50 (Colinus virginianus; [1]) of the same compound?
**A.** > 1410 mg/kg-day

**Q.** And the LD50 (Colinus virginianus; acute, oral, mortality)?
**A.** > 2000 mg/kg

**Q.** And the NOEC (Colinus virginianus; duration: 20 weeks)?
**A.** 173 mg/kg-day

**Q.** What about the NOEL (Colinus virginianus; duration: 20 weeks) of the same compound?
**A.** 14.8 mg/kg-day

**Q.** And the NOEC (Colinus virginianus; duration: 22 weeks)?
**A.** ≥ 1000 mg/kg-day

**Q.** And the NOEL (Colinus virginianus; duration: 22 weeks)?
**A.** ≥ 86 mg/kg-day

**Q.** And the LD50 (Mus musculus; F)?
**A.** 3460 mg/kg

**Q.** And the LD50 (Mus musculus; M)?
**A.** 2240 mg/kg-day

**Q.** What about the NOEC (Daphnia magna) of the same compound?
**A.** 0.56 mg/L

**Q.** What about the LD50 (Apis mellifera; dermal) of the same compound?
**A.** > 200 µg/piece

**Q.** What about the LD50 (Apis mellifera; oral, unspecified) of the same compound?
**A.** > 71 µg/piece

**Q.** What about the LR50 (Aphidius rhopalosiphi) of the same compound?
**A.** 140 g/ha

**Q.** What about the LR50 (Typhlodromus pyri) of the same compound?
**A.** 18.7 g/ha
